Test results reported in ChEMBL document CHEMBL2203072, “Enhanced anti-influenza agents conjugated with anti-inflammatory activity” (J Med Chem, 2012).
The source made the active and inactive calls. No cut-off for these calls is given here.

Columns and labels:
[1] = tested on: Influenza A virus; experiment: Antiviral activity against Influenza A virus (A/WSN/1933(H1N1)) infected in MDCK cells assessed as inhibition of virus induced cytopathic effect; format: functional, organism-based
[2] = target: Neuraminidase (Influenza A virus (strain A/Wilson-Smith/1933 H1N1) (Influenza A virus(strain A/WS/1933 H1N1)), UniProt P03470); experiment: Inhibition of Influenza A virus A/WSN/1933(H1N1)) neuraminidase in the presence of 2'-(4-methyl-umbelliferyl)-alphaD-N-acetylneuraminic acid substrate after 10 mins by fluorometric assay
Chain of Neuraminidase (Influenza A virus (strain A/Wilson-Smith/1933 H1N1) (Influenza A virus(strain A/WS/1933 H1N1)), UniProt P03470) (P03470 whole entry): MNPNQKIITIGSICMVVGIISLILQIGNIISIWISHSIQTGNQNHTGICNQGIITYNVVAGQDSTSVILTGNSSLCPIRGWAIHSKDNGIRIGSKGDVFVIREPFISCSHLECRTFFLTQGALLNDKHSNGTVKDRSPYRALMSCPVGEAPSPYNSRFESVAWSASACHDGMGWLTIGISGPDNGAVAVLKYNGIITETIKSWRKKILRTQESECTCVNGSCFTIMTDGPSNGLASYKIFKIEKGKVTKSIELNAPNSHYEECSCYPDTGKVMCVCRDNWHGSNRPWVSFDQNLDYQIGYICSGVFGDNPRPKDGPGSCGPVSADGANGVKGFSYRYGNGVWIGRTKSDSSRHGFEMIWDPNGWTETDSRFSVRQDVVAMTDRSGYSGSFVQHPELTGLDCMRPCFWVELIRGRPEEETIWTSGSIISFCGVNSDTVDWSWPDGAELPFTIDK

[3] = tested on: MDCK; experiment: Cytotoxicity against MDCK cells at 100 uM; format: cell-based, Canis lupus familiaris; settings: dog
[4] = tested on: RAW264.7; experiment: Antiinflammatory activity in LPS-activated mouse RAW264.7 cells assessed as inhibition of LPS induced TNFalpha production treated 30 mins prior to LPS challenge measured after 6 hrs by RT-PCR analysis; format: functional, cell-based
[5] = tested on: RAW264.7; experiment: Antiinflammatory activity in LPS-activated mouse RAW264.7 cells assessed as inhibition of LPS induced IL6 production treated 30 mins prior to LPS challenge measured after 6 hrs by RT-PCR analysis; format: functional, cell-based
[6] = tested on: Plasma; experiment: Metabolic stability in Sprague-Dawley rat plasma assessed as formation of compound 6 after 24 hrs by LC-QTOF MS analysis; format: ADME, cell-free
[7] = tested on: Influenza A virus; experiment: Antiviral activity against Influenza A virus (A/California/07/2009(H1N1)) infected in BALB/c mouse assessed as protection from virus-induced death at 0.12 umol/kg/day, intranasally administered bid on days 1 to 4 and day 0 of infection measured over 14 days; format: functional
[8] = tested on: Influenza A virus; experiment: Antiviral activity against recombinant Influenza A virus (A/VietNam/1194/2004(H5N1)) NIBRG-14 assessed as inhibition of virus induced cytopathic effect; format: functional, organism-based
[9] = tested on: Plasma; experiment: Metabolic stability in Sprague-Dawley rat plasma assessed as formation of compound 6 after 24 hrs by MALDI-TOF analysis; format: ADME, cell-free
[10] = tested on: Influenza A virus; experiment: Antiviral activity against Influenza A virus (A/VietNam/1194/2004(H5N1)) NIBRG-14 infected in BALB/c mouse assessed as protection from virus-induced death at 12 umol/kg/day, intranasally administered bid on days 1 to 4 and day 0 of infection measured over 14 days; format: functional, organism-based
[11] = tested on: Influenza A virus; experiment: Antiviral activity against Influenza A virus (A/California/07/2009(H1N1)) infected in BALB/c mouse assessed as protection from virus-induced death at 12 umol/kg/day, intranasally administered bid on days 1 to 4 and day 0 of infection measured over 14 days; format: functional, organism-based
[12] = tested on: Mus musculus; experiment: Antiinflammatory activity in mouse infected with Influenza A virus (A/VietNam/1194/2004(H5N1)) NIBRG-14 assessed as reduction in IFN-gamma level in serum at 12 umol/kg/day, intranasally administered after 72 hrs by ELISA; format: functional, organism-based
[13] = tested on: Plasma; experiment: Metabolic stability in Sprague-Dawley rat plasma assessed as compound degradation after 24 hrs by MALDI-TOF analysis; format: ADME, cell-free
[14] = tested on: Mus musculus; experiment: Antiinflammatory activity in mouse infected with Influenza A virus (A/VietNam/1194/2004(H5N1)) NIBRG-14 assessed as reduction in IL6 level in serum at 12 umol/kg/day, intranasally administered after 72 hrs by ELISA; format: functional, organism-based
[15] = tested on: Influenza A virus; experiment: Antiviral activity against Influenza A virus (A/California/07/2009(H1N1)) infected in BALB/c mouse assessed as protection from virus-induced death at 0.0012 umol/kg/day, intranasally administered bid on days 1 to 4 and day 0 of infection measured over 14 days; format: functional, organism-based
[16] = tested on: Influenza A virus; experiment: Antiviral activity against Influenza A virus (A/California/07/2009(H1N1)) infected in BALB/c mouse assessed as protection from virus-induced death at 1.2 umol/kg/day, intranasally administered bid on days 1 to 4 and day 0 of infection measured after 14 days; format: functional
[17] = tested on: Influenza A virus; experiment: Ratio of zanamivir EC50 to compound EC50 for Influenza A virus (A/VietNam/1194/2004(H5N1)) NIBRG-14; format: functional
[18] = tested on: Influenza A virus; experiment: Antiviral activity against Influenza A virus (A/California/07/2009(H1N1)) infected in BALB/c mouse assessed as protection from virus-induced death at 0.012 umol/kg/day, intranasally administered bid on days 1 to 4 and day 0 of infection measured over 14 days; format: functional
[19] = tested on: Plasma; experiment: Metabolic stability in Sprague-Dawley rat plasma assessed as release of zanamivir and caffiec acid after 24 hrs by MALDI-TOF analysis; format: ADME, cell-free
[20] = tested on: Plasma; experiment: Metabolic stability in Sprague-Dawley rat plasma assessed as release of zanamivir and caffiec acid after 24 hrs by LC-QTOF MS analysis; format: ADME, cell-free
[21] = tested on: Influenza A virus; experiment: Antiviral activity against Influenza A virus (A/VietNam/1194/2004(H5N1)) NIBRG-14 infected in BALB/c mouse assessed as protection from virus-induced death at 1.2 umol/kg/day, intranasally administered bid on days 1 to 4 and day 0 of infection measured over 14 days; format: functional, organism-based
[22] = tested on: Plasma; experiment: Metabolic stability in Sprague-Dawley rat plasma after 24 hrs by MALDI-TOF analysis; format: ADME, cell-free
[23] = tested on: Plasma; experiment: Metabolic stability in Sprague-Dawley rat plasma after 24 hrs by LC-QTOF MS analysis; format: ADME, cell-free
[24] = tested on: Influenza A virus; experiment: Antiviral activity against Influenza A virus (A/California/07/2009(H1N1)) infected in BALB/c mouse assessed as protection from virus-induced death at 1.2 umol/kg/day, intranasally administered bid on days 1 to 4 and day 0 of infection measured after 12 days; format: functional, organism-based
[25] = tested on: Plasma; experiment: Metabolic stability in Sprague-Dawley rat plasma assessed as compound degradation after 24 hrs by LC-QTOF MS analysis; format: ADME, cell-free

Compound	EC50 [1] [nM]	IC50 [2] [nM]	Activity [3]	further results
CC(=O)N[C@H]1[C@H]([C@H](O)[C@H](O)CO)OC(C(=O)OCCCOC(=O)c2cc(N)ccc2O)=C[C@@H]1NC(=N)N	16	996	Non-toxic	
O=C(O)/C=C/c1ccc2c(c1)OCO2	> 100000	> 100000	Non-toxic	Activity [4]: Dose-dependent effect; Activity [5]: Dose-dependent effect
CC(=O)N[C@H]1[C@H]([C@H](OC(=O)NCCCOC(=O)/C=C/c2ccc3c(c2)OCO3)[C@H](O)CO)OC(C(=O)O)=C[C@@H]1NC(=N)N	66	5.4	Non-toxic	
CC(=O)N[C@H]1[C@H]([C@H](OC(=O)NCCCOC(=O)/C=C/c2ccc(O)c(O)c2)[C@H](O)CO)OC(C(=O)O)=C[C@@H]1NC(=N)N	1.4	2.9	Non-toxic	Stability [6]: Unstable; Activity [7]: Active; EC50 [8]: 50 nM; Stability [9]: Unstable; Activity [10]: Active; Activity [11]: Active; Activity [12]: Active; Stability [13]: Unstable; Activity [14]: Active; Activity [4]: Dose-dependent effect; Activity [5]: Dose-dependent effect; Activity [15]: inactive; Activity [16]: Active; Ratio EC50 [17]: 13; Activity [18]: 40%
CC(=O)N[C@H]1[C@H]([C@H](O)[C@H](O)CO)OC(C(=O)O)=C[C@@H]1N=C(N)N [ZANAMIVIR]			Non-toxic	
CC(=O)N[C@H]1[C@H]([C@H](OC(=O)NCCCNC(=O)c2ccc3ccccc3c2O)[C@H](O)CO)OC(C(=O)O)=C[C@@H]1NC(=N)N	6.6	3.1	Non-toxic	
CC(=O)N[C@H]1[C@H]([C@H](OC(=O)NCCCOC(=O)c2ccc(O)c(O)c2)[C@H](O)CO)OC(C(=O)O)=C[C@@H]1NC(=N)N	53	2.9	Non-toxic	
CC(=O)N[C@H]1[C@H]([C@H](OC(=O)NCCCOC(=O)c2cc(N)ccc2O)[C@H](O)CO)OC(C(=O)O)=C[C@@H]1NC(=N)N	3.3	8.6	Non-toxic	EC50 [8]: 430 nM; Activity [10]: inactive; Activity [11]: Active; Activity [12]: Active; Stability [13]: Unstable; Activity [14]: Active; Activity [4]: Dose-dependent effect; Activity [5]: Dose-dependent effect
CC(=O)N[C@H]1[C@H]([C@H](O)[C@H](O)CO)OC(C(=O)OCCCOC(=O)/C=C/c2ccc(O)c(O)c2)=C[C@@H]1NC(=N)N	25	2850	Non-toxic	Stability [19]: Unstable; Stability [20]: Unstable
CC(=O)N[C@H]1[C@H]([C@H](OC(=O)NCCCNC(=O)/C=C/c2ccc(O)c(O)c2)[C@H](O)CO)OC(C(=O)O)=C[C@@H]1NC(=N)N	5.1	41.3	Non-toxic	Activity [7]: 50%; Activity [21]: Active; Activity [10]: Active; Stability [22]: Stable; Stability [23]: Stable; Activity [16]: 100%; Activity [18]: inactive
CC(=O)N[C@H]1[C@H]([C@H](OC(=O)NCCCO)[C@H](O)CO)OC(C(=O)O)=C[C@@H]1NC(=N)N	105	11.7	Non-toxic	EC50 [8]: 820 nM
CC(=O)N[C@H]1[C@H]([C@H](O)[C@H](O)CO)OC(C(=O)O)=C[C@@H]1NC(=N)N [ZANAMIVIR]	3.5			Activity [10]: inactive; Activity [11]: Active; Activity [12]: Active; Activity [14]: Active; Activity [24]: inactive
O=C(O)c1ccc2ccccc2c1O [CARBOXYNAPHTHOL]	> 100000	> 100000	Non-toxic	
CC(=O)N[C@H]1[C@H]([C@H](O)[C@H](O)CO)OC(C(=O)OCCCOC(=O)/C=C/c2ccc3c(c2)OCO3)=C[C@@H]1NC(=N)N	28	3990	Non-toxic	
CC(=O)N[C@H]1[C@H]([C@H](O)[C@H](O)CO)OC(C(=O)OCCCOC(=O)c2ccc3ccccc3c2O)=C[C@@H]1NC(=N)N		590	Non-toxic	Stability [13]: Unstable; Stability [25]: Unstable
O=C(O)/C=C/c1ccc(O)c(O)c1 [CAFFEIC ACID]	> 100000	> 100000	Non-toxic	Activity [11]: Active; Activity [4]: Dose-dependent effect; Activity [24]: inactive; Activity [5]: Dose-dependent effect
Nc1ccc(O)c(C(=O)O)c1 [MESALAMINE]	> 100000	> 100000	Non-toxic	Activity [11]: Active; Activity [4]: Dose-dependent effect; Activity [5]: Dose-dependent effect
CC(=O)N[C@H]1[C@H]([C@H](OC(=O)NCCCOC(=O)c2ccc3ccccc3c2O)[C@H](O)CO)OC(C(=O)O)=C[C@@H]1NC(=N)N	50	0.7	Non-toxic	
